The results in this text go back to patent US10441608B2, “Continuous methods for treating liquids and manufacturing certain constituents (e.g., nanoparticles) in liquids, apparatuses and nanoparticles and nanoparticle/liquid solution(s) resulting therefrom” (Clene Nanomedicine, Inc., priority 2009, dated 2019).

Common to all, as to type: cell-based
The subject of assay [1] is a variety of fungi. The assay is described as follows: Broth microdilution MIC/MID 50 against fungi. The settings on record: antifungal concentration. On the procedure:
The clinical and laboratory standards institute Broth Microdilution Methodology was employed, however, the growth medium used was an “RPMI” medium. Table 22c uses a format similar to that used for Table 22a, however, the test solutions were tested against a variety of fungi.

Assay [2] concerns Gram-Positive and Gram Negative bacteria.
Assay [3] concerns Trypanosoma b. rhodesiense STIB 900. As to the kind of experiment: Alamar Blue assay against Human African Trypanosomiasis parasites. The protocol:
Minimum Essential Medium (50 μl) supplemented according to Baltz et al. (1985) with 2-mercaptoethanol and 15% heat-inactivated horse serum was added to each well of a 96-well microtiter plate.
Serial drug dilutions were prepared covering a range from 90 to 0.123 μg/ml.
Then 10^4 bloodstream forms of Trypanosoma b. rhodesiense STIB 900 in 50 μl were added to each well and the plate incubated at 37° C. under a 5% CO2 atmosphere for 72 hours.
10 μl of Alamar Blue (12.5 mg resazurin dissolved in 100 mL distilled water) were then added to each well and incubation continued for a further 2-4 hours.
Then the plates were read with a Spectramax Gemini XS microplate fluorometer (Molecular Devices Cooperation, Sunnyvale, Calif., USA) using an excitation wave length of 536 nm and an emission wave length of 588 nm.
Data were analysed using the software Softmax Pro (Molecular Devices Cooperation, Sunnyvale, Calif., USA). Decrease of fluorescence (=inhibition) was expressed as percentage of the fluorescence of control cultures and plotted against the drug concentrations.
From the sigmoidal inhibition curves the IC50 values were calculated.

Molecules are shown by their SMILES. Values joined by “and” are separate entries in the source; they are usually repeats but may differ in a detail not shown here. Identical values can stand only once. Like-named read-outs stand apart in the source and are kept apart here.

With `C[C@@H]1[C@H](O)[C@@H](C)/C=C/C=C/C=C/C=C/C=C/C=C/C=C/[C@H](O[C@@H]2O[C@H](C)[C@@H](O)[C@H](N)[C@@H]2O)C[C@@H]2O[C@](O)(C[C@@H](O)C[C@@H](O)[C@H](O)CC[C@@H](O)C[C@@H](O)CC(=O)O[C@H]1C)C[C@H](O)[C@H]2C(=O)O` [Amphotericin B], the MID/MIC in assay [1] (ATCC 22019 Candida parapsilosis - 24 hrs) is 0.5 µg/mL; in assay [1] (ATCC 22019 Candida parapsilosis - 48 hrs §§ (24 hour read)), 1 µg/mL; in assay [1] (NCPF 118 Trichophyton rubrum 48 hrs §§ (24 hour read)), 0.5 µg/mL and 1 µg/mL; in assay [1] (NCPF 175 Trychophyton interdigitale 72 hrs §§ (24 hour read)) it was 2 µg/mL; in assay [1] (NCPF 177 *Microsporum canis - 72 hrs }} (required 72 hours incubation)) it was 0.12 µg/mL; in assay [1] (NCPF 224 Trichophyton mentagrophytes - 48 hrs §§ (24 hour read)), 2 µg/mL. Further, the MID/MIC in assay [1] (NCPF 436 *Microsporum audounii - 72 hrs }} (required 72 hours incubation)) was 0.5 µg/mL; in assay [1] (NCPF 988 *Microsporum ferrugineum - 72 hrs }} (required 72 hours incubation)), 1 µg/mL; in assay [1] (NCPF 2140 Aspergiflus fumigatus - 48 hrs §§ (24 hour read)) it was 2 µg/mL; in assay [1] (NCPF 2175 Aspergillus flavus - 48 hrs §§ (24 hour read)) it was 4 µg/mL; in assay [1] (NCPF 2634 Rhizopus oligosporus - 24 hrs), 0.5 µg/mL; in assay [1] (NCPF 2715 Penicillium chrysogenum 48 hrs §§ (24 hour read)), 2 µg/mL. In addition, the MID/MIC in assay [1] (NCPF 2722 Fusarium oxysporum - 48 hrs) worked out at 1 µg/mL; in assay [1] (NCPF 2743 Mucor circinelloides - 48 hrs), 1 µg/mL; in assay [1] (NCPF 3309 Candida glabrata - 24 hrs), 0.5 µg/mL; in assay [1] (NCPF 3309 Candida glabrata - 48 hrs) it was 1 µg/mL; in assay [1] (NCPF 3516 Candida lusitaniae - 24 hrs), 0.5 µg/mL; in assay [1] (NCPF 3516 Candida lusitaniae - 48 hrs §§ (24 hour read)), 1 µg/mL. The MID/MIC amounted to 0.5 µg/mL in assay [1] (NCPF 3853 Trichophyton cutaneum 48 hrs §§ (24 hour read)); 0.25 µg/mL in assay [1] (NCPF 5011 Epidermophyton floccosum - 48 hrs); 1 µg/mL in assay [1] (NCPF 7075 *Sporothrix schenkii - 72 hrs (required 72 hours incubation)); 1 µg/mL in assay [1] (NCPF 7147 Alternaria altemata - 48 hrs §§ (24 hour read)); 2 µg/mL in assay [1] (NIH 2624 Aspergillus terreus - 48 hrs §§ (24 hour read)).

Consider `CCC[C@@H]1C[C@@H](C(=O)N[C@@H]([C@H]2O[C@H](SC)[C@H](O)[C@@H](O)[C@H]2O)[C@H](C)Cl)N(C)C1` [Clindamycin], for which the “MID/MIC (amount of antibiotic)” value in assay [2] is at most 0.06 µg/mL; in assay [2] (CD01 Clostridium difficile, Brucella broth with 5% LHB, 1 μg/mL Vit K, 1 μg/mL Haemin), 4 µg/mL; in assay [2] (CD02 Clostridium difficile, Brucella broth with 5% LHB, 1 μg/mL Vit K, 1 μg/mL Haemin), 2 µg/mL; in assay [2] (CD03 Clostridium difficile, Brucella broth with 5% LHB, 1 μg/mL Vit K, 1 μg/mL Haemin) it was 2 µg/mL and 1 µg/mL; in assay [2] (CD04 Clostridium difficile, Brucella broth with 5% LHB, 1 μg/mL Vit K, 1 μg/mL Haemin) it was 1 µg/mL; in assay [2] (CD05 Clostridium difficile, Brucella broth with 5% LHB, 1 μg/mL Vit K, 1 μg/mL Haemin), 1 µg/mL. For the same molecule, the “MID/MIC (amount of antibiotic)” value in assay [2] (CD06 Clostridium difficile, Brucella broth with 5% LHB, 1 μg/mL Vit K, 1 μg/mL Haemin) is 1 µg/mL; in assay [2] (CD07 Clostridium difficile, Brucella broth with 5% LHB, 1 μg/mL Vit K, 1 μg/mL Haemin) it was 1 µg/mL; in assay [2] (CD08 Clostridium difficile, Brucella broth with 5% LHB, 1 μg/mL Vit K, 1 μg/mL Haemin) it was 0.5 µg/mL and 1 µg/mL; in assay [2] (CD09 Clostridium difficile, Brucella broth with 5% LHB, 1 μg/mL Vit K, 1 μg/mL Haemin) it was 1 µg/mL and 2 µg/mL; in assay [2] (GN10 Pseudomonas aeruginosa ATCC27853, antibiotic-susceptible type strain), 1 µg/mL; in assay [2] (GN32 Acinetobacter baumanii, multi-drug resistant clinical isolate), 50.06 µg/mL. Besides, the “MID/MIC (amount of antibiotic)” value in assay [2] (P8119035 Citrobacter freundii, resistant clinical isolate) stood at 4 µg/mL.

As for `Nc1nc(N)nc(Nc2ccc([As]3SCC(CO)S3)cc2)n1` (stereo not shown) [Melarsoprol], the IC50 in assay [3] (72 h, read-out: T.b. rhod. IC/50 Trial I) turned out to be 0.003 µg/mL; in assay [3] (72 h, read-out: T.b. rhod. IC/50 Trial III), 0.002 µg/mL; in assay [3] (72 h, read-out: T.b. rhod. IC/50 Trial V), 0.005 µg/mL; in assay [3] (read-out: T.b. rhod. IC/50 Avg less 1 ng/ml), 0.00333 µg/mL.
